Reference: publication PMC9760738, “Pharmacokinetics, absorption, distribution, metabolism and excretion of the MEK inhibitor zapnometinib in rats” (Frontiers in Pharmacology, 2022)

Tests used:
[1] = Metabolite profiling of pooled feces extracts by radio-HPLC (Group 2); type: in vivo, rat; conditions: for Proportion of feces sample radioactivity: 24-48 h
Method: Metabolite profiling was performed by HPLC analysis according to the company’s SOP of plasma (Group 3), urine (Group 2) and feces (Group 2) samples. Briefly, for metabolite profiling and identification, radioactivity (cpm) was measured in HPLC eluent fractions that had previously been collected at 12 s intervals for the duration of the run (65 min) into 96-well Deep Well LumaPlates and dried in a centrifugal evaporator. A Microbeta2 scintillation counter was used to count each plate, with wells simultaneously counted for 2 min, after an initial 5 min delay. A subsample of plasma was analyzed (ca 2 ml) taken from individual animals to provide representative samples, for each sex, at 2, 8 and 168 h post dose (n = 6). Equal proportions of the total urine weight voided from Group 2 animals was pooled to provide representative samples for each sex at 0–6 h, 6–24 h and 24–48 h post dose (n = 6). Equal proportions of the total feces homogenate generated from the samples voided by the three rats (Group 2) were pooled to provide representative samples for each sex at 0–24 and 24–48 h post dose ([…]). Sample preparation was carried out due to the company’s SOPs (see Supplementary Methods). The extractability was ≥95.0% (95.0–100%) TRR (Total Radioactive Residue) for plasma and ≥88.3% (88.3%–91.3%) TRR for feces. As reference, a standard solution of zapnometinib (0.1 mg/ml in acetonitrile) was used. To assess HPLC method suitability, a column recovery was assessed on each representative sample (one per matrix). The recovery of radioactivity from the HPLC column was determined by collecting the column eluent, following an injection of a representative sample (one per matrix), and determining the radioactive content by submitting aliquots for LSC analysis. The results of these analyses were between 93.8%–105.1% column recoveries.
Next, radioactive metabolic components of zapnometinib in urine, plasma and feces extracts were isolated and profiled. The components were quantified by fraction collection/scintillation analysis, as appropriate to the radioactivity concentrations. Mass spectroscopy was used to propose identities of the major circulatory and excreted metabolites, and to correlate the metabolites detected in the different matrices. Components identified by LC-MS/MS were related to the quantified HPLC analysis by comparison of related radiochromatograms and comparison of elution order. Representative HPLC radiochromatograms of pooled feces extracts collected during 0–24 and 24–48 h post dose from male and female rats (which reveal the main metabolites) were qualitatively similar with some minor sex differences (Figure 3). […]
times with the following solvents following the same procedure: Extract 2 – Acetonitrile/methanol 4:1 (v/v); Extract 3 – Acetonitrile/Water 1:1 (v/v). Duplicate weighed aliquots of each supernatant (ca 0.1 mL) were mixed directly with Ultima Gold scintillation cocktail for measurement of radioactivity concentrations. The extracted residue was allowed to air dry and the total weight was recorded. Duplicate weighed portions (ca 0.05g) were taken for radioassay after oxidation. The extracts were combined and concentrated under a constant stream of nitrogen gas to near dryness and reconstituted in acetonitrile/0.1% aqueous formic acid, 1:1 (v/v) by vortex mixing, sonication and centrifugation at 10000 × g for 5 min at 4°C.
The concentrates were weighed, and duplicate weighed aliquots (0.025 – 0.05 mL) taken for measurement of radioactivity to calculate recovery following concentration. An aliquot of each concentrated extract was injected into the HPLC. […]
(100 mL) in purified water (600 mL) and methanol (300 mL). After measurement of total sample weight (as appropriate), replicate portions of diluted dose solutions (ca 0.1 mL), plasma (ca 0.05 – 0.25 mL), urine (ca 0.05 – 0.25 mL), expired air trap solution (ca 1 mL) and cage wash (ca 1 mL) were mixed directly with Ultima Gold scintillation cocktail (5 mL; 15 mL for […]

[2] = QWBA tissue radioactivity, single oral 30 mg/kg, male partially pigmented rats (Group 3); 0.5, 2, 4, 8, 24, 72, 168 h; type: in vivo, rat
Method: (§1) The whole-body autoradiography techniques by Ullberg and Larsson was used in this study ([Ullberg and Larsson 1981]). Following a single oral administration of [^14C]-zapnometinib to seven male and seven female partially pigmented rats (Group 3) and four male albino rats (Group 4), one animal per sex (where appropriate) was killed at the following time points post dose: Group 3 (pigmented): 0.5, 2, 4, 8, 24, 72, and 168 h, Group 4 (albino): 2, 24, 72 and 168 h. At sacrifice, each rat was anaesthetized with isoflurane and a blood sample (ca 5 ml) was collected by cardiac puncture into a tube containing K2EDTA anticoagulant. Blood was centrifuged at 2000 ×g for 10 min at 4°C to obtain plasma, which was transferred into plain tubes pending measurement of radioactivity concentration. The blood cells were also retained for analysis.
(§2) The rat carcasses were immediately attached to a plate and frozen in a bath of n-heptane and solid CO2 at ca –80°C and then stored at –20 ± 10°C until taken for sectioning. […] [^14C]-Blood standards containing six different known concentrations of radioactivity were used to construct the calibration line for the quantitative determination of tissue concentrations of radioactivity. […] The electronic images of all sections were analyzed at Labcorp–Huntingdon using a validated image analysis package (Seescan Densitometry software, version 2.0). […]

[3] = Plasma protein binding assay, rat plasma; type: in vitro ADME; conditions: data not shown
[4] = QWBA tissue radioactivity, single oral 30 mg/kg, female partially pigmented rats (Group 3); Table 6 columns c2-c8 = 0.5, 2, 4, 8, 24, 72, 168 h; type: in vivo, rat; conditions: 2 h
Method: as §1, §2

[5] = Plasma protein binding assay, human plasma; type: in vitro ADME; conditions: data not shown

O=C(O)c1ccc(F)c(F)c1Nc1ccc(I)cc1Cl [zapnometinib, 2-(2-Chloro-4-iodophenylamino)-3,4-difluorobenzoic acid]
Amount in pooled feces extracts ([1]; 0-24 hours, female rats): 19.87 % Dose | Amount in pooled feces extracts ([1]; 0-24 hours, male rats): 19.28 % Dose | Proportion of feces sample radioactivity ([1]; female rats): 28.5 % sample radioactivity | Proportion of feces sample radioactivity ([1]; male rats): 21.5 % sample radioactivity | Amount in pooled feces extracts ([1]; 24-48 hours, female rats): 6.30 % Dose | Amount in pooled feces extracts ([1]; 24-48 hours, male rats): 2.15 % Dose | Amount in pooled feces extracts ([1]; Total (0-48 hours), female rats): 26.17 % Dose | Radioactivity in all remaining tissues ([2]; 2 h, male): ≤ 70.0 μg equivs/g | Penetration into the brain ([2]; whole body autoradiography): low | Protein binding [3]: high protein binding | Unbound fraction [3]: very low | Radioactivity in all remaining tissues [4]: ≤ 74.4 µg equivs/g | Protein binding [5]: high protein binding | Unbound fraction [5]: very low
